Measured values from publication PMC12030165, “Bioactivity of Synthesized Trifluoromethyl Thioxanthone Analogues” (Pharmaceuticals, 2025).

Legend:
[1] = molecular target: T1, porcine pancreatic α-amylase (Sus scrofa, UniProt P00690); test: α-Amylase inhibition assay (DNSA); assay type: biochemical
T1 construct: purchased MP Biochemicals (Illkirch, France)
T1 sequence (P00690 16-511): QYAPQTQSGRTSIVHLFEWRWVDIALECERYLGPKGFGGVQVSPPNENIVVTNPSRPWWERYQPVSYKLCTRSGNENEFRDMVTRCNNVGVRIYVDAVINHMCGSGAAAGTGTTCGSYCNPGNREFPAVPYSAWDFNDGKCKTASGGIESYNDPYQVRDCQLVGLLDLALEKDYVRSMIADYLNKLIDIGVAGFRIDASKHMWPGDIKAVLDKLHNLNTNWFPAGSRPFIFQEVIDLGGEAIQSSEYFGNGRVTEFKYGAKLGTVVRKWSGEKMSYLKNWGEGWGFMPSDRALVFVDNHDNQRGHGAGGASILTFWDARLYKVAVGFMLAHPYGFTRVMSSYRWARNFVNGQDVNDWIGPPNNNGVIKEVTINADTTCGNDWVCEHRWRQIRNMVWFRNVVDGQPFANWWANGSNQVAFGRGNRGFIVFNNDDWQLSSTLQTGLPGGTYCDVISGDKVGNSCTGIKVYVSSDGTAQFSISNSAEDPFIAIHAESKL
Method: Each product was initially dissolved in a few milliliters of 10% DMSO and then further diluted in a buffer solution (0.02 M Na2HPO4/NaH2PO4, 0.006 M NaCl, at pH 6.9) to prepare stock solutions at a concentration of 1000 µg/mL. From these stock solutions, further dilutions were made to obtain concentrations of 20, 50, and 70 µg/mL, using 10% DMSO as a diluent. A porcine pancreatic α-amylase enzyme solution was prepared at 2 units/mL concentration in 10% DMSO. For the working solutions, 0.2 mL of the enzyme solution was mixed with 0.2 mL of each product, and the mixture was incubated for 10 min at 30 °C. Following the incubation, 0.2 mL of a freshly prepared 1% starch aqueous solution was added to each working solution, which was then incubated for an additional 3 min. The reaction was halted by adding 0.2 mL of dinitrosalicylic acid (DNSA) yellow color reagent. Each working solution was diluted with 5 mL of distilled water and boiled for 10 min in a water bath at 90 °C. After cooling the mixture to room temperature, the absorbance was measured at 540 nm. The blank control was prepared similarly but replaced the product fraction with 0.2 mL of the buffer as mentioned above. Acarbose was used as the standard reference and was subjected to the same experimental procedures. The α-amylase inhibitory activity was calculated using the following equation [49]:% of α amylase inhibition = (AB − AE)/AB × 100%

HeLa cells = test: Cytotoxicity (MTS) against HeLa cells; assay type: cell-based; conditions: for IC50: Homo sapiens, HeLa, concentration range 100–20,000 nM, read-out: IC50 of inhibition activity against Hela cells
Method: RPMI-1640 medium was used to culture cervical adenocarcinoma (HeLa) cancer cells, supplemented with 10% fetal bovine serum, 1% penicillin/streptomycin, and 1% L-glutamine. The HeLa cells were grown in a humidified environment at 37 °C with a 5% CO2 atmosphere. A 96-well plate was employed for seeding the cells at a density of 2.6 × 10^4 cells per well. Following a 24-h incubation, the cells were treated with various concentrations of the tested (AO) fractions. Cell viability was assessed using the Cell Titer 96® Aqueous One Solution Cell Proliferation (MTS) assay, following the manufacturer’s instructions (Promega Corporation, Wisconsin, WI, USA). Briefly, at the end of the treatment, 20 µL of MTS solution was added to each well containing 100 µL of media, and the cells were incubated at 37 °C for 2 h. The absorbance was measured using a UV-visible spectrophotometer at a wavelength of 490 nm.

Compound	IC50 of the α-Amylase inhibition activity [1]	IC50 (HeLa cells)	IC50 [1]	% toxicity against HeLa cells (HeLa cells; 200 nM)
S-(9-benzyl-2-(trifluoromethyl)-9H-thioxanthen-9-yl)-L-cysteine [Compound 3]	no inhibitory effect	–	–	–
OC1(Cc2ccccc2)c2ccccc2Sc2ccc(C(F)(F)F)cc21 (stereo not drawn) [Compound 2, 9-benzyl-2-(trifluoromethyl)-9H-thioxanthen-9-ol]	–	0.169 µM	60.2 ± 0.8 µM	–
OC1(c2ccccc2)c2ccccc2Sc2ccc(C(F)(F)F)cc21 (stereo not drawn) [Compound 1, 9-phenyl-2-(trifluoromethyl)-9H-thioxanthen-9-ol]	–	0.0878 µM	283 µM	93.18%
